Measured values as given in the NIST ThermoML archive (doi:10.1016/j.jct.2009.10.007).
Numbers after ± are expanded uncertainties.

How the values were obtained:
[1] = refractive index (Na D-line) (dimensionless); mn = molality of the nth substance listed, in mol/kg; conditions: 308.15 K, 101 kPa, Liquid, Standard Abbe refractometry
[2] = mn = molality of the nth substance listed, in mol/kg; conditions: 101 kPa, Liquid; for speed of sound: Sing-around technique in a fixed-path interferometer; for mass density: Vibrating tube method

CCCCn1cc[n+](C)c1.[Br-] [1-butyl-3-methylimidazolium bromide] + O
[1]
Conditions	refractive index
m1 = 0.0096	1.3326 ± 0.0005
m1 = 0.02	1.3343 ± 0.0005
m1 = 0.0298	1.3358 ± 0.0005
m1 = 0.0348	1.3366 ± 0.0005
m1 = 0.0398	1.3375 ± 0.0005
m1 = 0.05	1.339 ± 0.0005
m1 = 0.0548	1.3397 ± 0.0005
m1 = 0.0598	1.3405 ± 0.0005
m1 = 0.0689	1.3419 ± 0.0005
m1 = 0.082	1.3439 ± 0.0005
m1 = 0.0854	1.3444 ± 0.0005
m1 = 0.0896	1.3451 ± 0.0005
m1 = 0.1	1.3466 ± 0.0005
m1 = 0.1192	1.3497 ± 0.0005

[2]
Conditions	mass density, 288.15 K [kg/m3]	mass density, 293.15 K [kg/m3]	speed of sound, 288.15 K [m/s]	speed of sound, 293.15 K [m/s]	speed of sound, 298.15 K [m/s]
m1 = 0.0183	1000.03 ± 0.061	999.121 ± 0.06	1468.7 ± 0.75	1484.7 ± 0.75	1498.8 ± 0.76
m1 = 0.0274	1000.49 ± 0.061	999.575 ± 0.061	1469.8 ± 0.75	1485.7 ± 0.76	1499.6 ± 0.76
m1 = 0.0367	1000.96 ± 0.061	1000.04 ± 0.06	1471 ± 0.75	1486.7 ± 0.76	1500.5 ± 0.76
m1 = 0.0459	1001.42 ± 0.061	1000.49 ± 0.062	1472 ± 0.75	1487.7 ± 0.76	1501.5 ± 0.76
m1 = 0.0692	1002.59 ± 0.061	1001.64 ± 0.061	1474.8 ± 0.76	1490.2 ± 0.76	1503.7 ± 0.76
m1 = 0.0932	1003.78 ± 0.062	1002.82 ± 0.061	1477.3 ± 0.76	1492.5 ± 0.76	1505.9 ± 0.76
m1 = 0.1164	1004.92 ± 0.062	1003.94 ± 0.061	1480 ± 0.76	1495 ± 0.76	1508.1 ± 0.77
m1 = 0.141	1006.13 ± 0.062	1005.13 ± 0.062	1483 ± 0.76	1497.6 ± 0.77	–
m1 = 0.1652	1007.3 ± 0.063	1006.29 ± 0.062	1485.6 ± 0.77	1500.1 ± 0.77	–
m1 = 0.1863	1008.32 ± 0.063	1007.29 ± 0.063	1488 ± 0.77	1502.2 ± 0.77	–
m1 = 0.2114	1009.53 ± 0.064	1008.48 ± 0.063	1490.8 ± 0.77	1504.8 ± 0.77	–
m1 = 0.2376	1010.77 ± 0.065	1009.71 ± 0.064	1493.6 ± 0.77	1507.3 ± 0.78	–
m1 = 0.2632	1011.99 ± 0.065	1010.91 ± 0.064	1496.4 ± 0.78	1509.8 ± 0.78	–
m1 = 0.2831	1012.92 ± 0.065	1011.83 ± 0.062	1498.5 ± 0.78	1511.8 ± 0.78	–
